{"source": "patent US11793197B2", "about": "“Use of an amphidinol for its fungicidal and/or bactericidal activity on fungi, oomycetes and/or pathogenic bacteria of plants and crop seeds” (Immunrise […], priority 2017, dated 2023)", "system": "F. graminearum spores", "assay_type": "cell-based, Fusarium graminearum"}
{"smiles": "C=C/C=C/CC/C=C/C=C/C=C/CC/C=C/[C@H](O)[C@H](O)[C@@H]1O[C@@H]([C@H](O)[C@H](O)C(=C)CC[C@@H](O)[C@H]2C[C@@H](O)[C@@H](O)[C@H]([C@@H](O)[C@H](O)/C=C(\\C)CCC(O)CC(O)C(O)C(C)CC(O)C(O)CC(C)CCC(O)CC(=O)CC(O)CCCC(O)CCCCC(O)CO)O2)C[C@@H](O)[C@H]1O", "note": "(stereo partly shown) [amphidinol 18]", "values": [{"measurement": "antifungal activity against F. graminearum", "result": "has antifungal activity"}]}
